# Where a SMILES comes first, the peptide text is derived from it. Bridges are numbered along the chain shown (N, C = ends). [ ]: non-standard residue; d: D form. The star is where a group is joined. ξ: configuration not given here. Phe(4-COOH) = N[C@@H](Cc1ccc(C(=O)O)cc1)C(=O)O; Bip = N[C@@H](Cc1ccc(-c2ccccc2)cc1)C(=O)O; Phe(3-Me) = Cc1cccc(C[C@H](N)C(=O)O)c1; Val(3-OH) = CC(C)(O)[C@H](N)C(=O)O; hArg = N=C(N)NCCCC[C@H](N)C(=O)O; 3Thi = N[C@@H](Cc1ccsc1)C(=O)O; Cha = N[C@@H](CC1CCCCC1)C(=O)O; Cit = NC(=O)NCCC[C@H](N)C(=O)O; Thr(3ξ) = CC(O)[C@H](N)C(=O)O; Carboxymethyl = O=C(O)C*; Orn = NCCC[C@H](N)C(=O)O; Dab = NCC[C@H](N)C(=O)O; Dap = NC[C@H](N)C(=O)O; Ac3c = NC1(C(=O)O)CC1; Bn = c1ccc(C*)cc1
# Molecular target: T1, human PD-1 / PD-L1-Ig binding on Jurkat cell line over-expressing human PD-1 (Jurkat-PD-1) (Homo sapiens, UniProt Q15116)
# T1 construct: expressed in transfected cells; host or cells: Jurkat
# T1 sequence (Q15116 25-288): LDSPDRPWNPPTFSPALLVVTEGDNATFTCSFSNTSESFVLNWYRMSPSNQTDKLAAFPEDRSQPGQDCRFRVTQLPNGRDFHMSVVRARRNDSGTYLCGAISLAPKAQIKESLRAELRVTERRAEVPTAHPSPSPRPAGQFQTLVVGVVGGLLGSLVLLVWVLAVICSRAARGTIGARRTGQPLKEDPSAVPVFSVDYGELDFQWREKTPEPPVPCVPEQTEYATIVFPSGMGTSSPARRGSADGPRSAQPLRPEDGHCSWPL
# Assay: Jurkat-PD-1 Cell Binding High-Content Screening Assay (CBA)
# Assay type: cell-based
# Conditions: Jurkat HPD1_PDL1 IC50, Jurkat-PD-1 cells, PE-labeled PD-L1-Ig 20 nM final
# In short: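 Read-out: high-content imaging of PE-tagged PD-L1-Ig bound to Jurkat cells overexpressing human PD-1, after fixation with 4% paraformaldehyde and Hoechst 33342 nuclear staining. Ligand was used at 20 nM final for 1 hour, after a 2 h compound exposure at 37° C in serum-containing DMEM.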
row,Compound,IC50 [nM]
1,CC(C)C[C@H]1NC(=O)[C@H](CCCN)NC(=O)[C@H](C(C)C)NC(=O)[C@H](Cc2ccc(-c3ccccc3)cc2)NC(=O)[C@H](C(C)C)NC(=O)[C@H](Cc2c[nH]c3ccccc23)NC(=O)[C@H](CC(=O)O)NC(=O)[C@H](Cc2ccc(OCC(=O)O)cc2)NC(=O)[C@H](CN)NC(=O)CSC[C@@H](C(=O)N[C@@H](C)C(N)=O)NC(=O)[C@H]([C@@H](C)O)NC(=O)[C@H](C(C)C)NC(=O)[C@H](CC2CCCCC2)NC(=O)[C@H](Cc2ccc(OCc3ccccc3)cc2)NC1=O [Compound 1531] ({CH2CO}-[Dap]Y(Carboxymethyl)DWV[Bip]V[Orn][dL]Y(Bn)[Cha]VTCA-NH2; thioether N-14),707

# Same assay, conditions: Jurkat-PD-1 cells, PE-labeled PD-L1-Ig 20 nM final; read-out: Jurkat HPD1_PDL1 IC50
row,IC50 [nM],Compound
1,16.7,CC[C@H](C)[C@@H]1NC(=O)[C@H](Cc2c[nH]c3ccccc23)NC(=O)[C@H](CC(=O)O)NC(=O)[C@H](Cc2ccc(OCC(=O)O)cc2)NC(=O)[C@H](CN)NC(=O)CSC[C@@H](C(=O)N[C@@H](C)C(N)=O)NC(=O)[C@H]([C@@H](C)O)NC(=O)[C@H](C(C)C)NC(=O)[C@H](CC2CCCCC2)NC(=O)[C@H](CCN)NC(=O)[C@@H](CC(C)C)NC(=O)[C@H](CCCN)NC(=O)[C@H](C(C)C)NC(=O)[C@H](Cc2ccc(-c3ccccc3)cc2)NC1=O [Compound 1733] ({CH2CO}-[Dap]Y(Carboxymethyl)DWI[Bip]V[Orn][dL][Dab][Cha]VTCA-NH2; thioether N-14)
2,8.9,CC(C)C[C@H]1NC(=O)[C@H](CCCN)NC(=O)[C@H](CCCCN)NC(=O)[C@H](Cc2ccc(-c3ccccc3)cc2)NC(=O)[C@H](C(C)C)NC(=O)[C@H](Cc2c[nH]c3ccccc23)NC(=O)[C@H](CC(=O)O)NC(=O)[C@H](Cc2ccc(OCC(=O)O)cc2)NC(=O)[C@H](CN)NC(=O)CSC[C@@H](C(=O)N[C@@H](C)C(N)=O)NC(=O)[C@H]([C@@H](C)O)NC(=O)[C@H](C(C)C)NC(=O)[C@H](CC2CCCCC2)NC(=O)[C@H](CCN)NC1=O [Compound 1377] ({CH2CO}-[Dap]Y(Carboxymethyl)DWV[Bip]K[Orn][dL][Dab][Cha]VTCA-NH2; thioether N-14)
3,13.8,Cc1cccc(C[C@@H]2NC(=O)[C@H](CC(=O)O)NC(=O)[C@H](Cc3ccc(C(=O)O)cc3)NC(=O)[C@H](Cc3ccc(OCC(=O)O)cc3)NC(=O)CSC[C@@H](C(=O)N[C@@H](C)C(N)=O)NC(=O)[C@H]([C@@H](C)O)NC(=O)[C@H](C(C)C)NC(=O)[C@H](CC3CCCCC3)NC(=O)[C@H](CCN)NC(=O)[C@@H](CC(C)C)NC(=O)[C@H](CCCN)NC(=O)[C@H](CCN)NC(=O)[C@H](Cc3ccc(-c4ccccc4)cc3)NC(=O)[C@H](C(C)C)NC2=O)c1 [Compound 1415]
4,478,COc1ccc(C[C@@H]2NC(=O)[C@H](CC(=O)O)NC(=O)[C@H](Cc3ccc(OCC(=O)O)cc3)NC(=O)[C@H](CN)NC(=O)CSC[C@@H](C(=O)N[C@@H](C)C(N)=O)NC(=O)[C@H]([C@@H](C)O)NC(=O)[C@H](C(C)C)NC(=O)[C@H](CC3CCCCC3)NC(=O)[C@H](CCN)NC(=O)[C@@H](CC(C)C)NC(=O)[C@H](CCCN)NC(=O)[C@H](CCC(=O)O)NC(=O)[C@H](Cc3ccc(-c4ccccc4)cc3)NC(=O)[C@H](C(C)C)NC2=O)cc1 [Compound 2140] ({CH2CO}-[Dap]Y(Carboxymethyl)DY(Me)V[Bip]E[Orn][dL][Dab][Cha]VTCA-NH2; thioether N-14)
5,102,CC(C)C[C@@H]1NC(=O)[C@H](Cc2c[nH]c3ccccc23)NC(=O)[C@H](CC(=O)O)NC(=O)[C@H](Cc2ccc(O)cc2)NC(=O)[C@H](Cc2ccccc2)NC(=O)CSC[C@@H](C(=O)N[C@@H](C)C(N)=O)NC(=O)[C@H]([C@@H](C)O)NC(=O)[C@H](C(C)C)NC(=O)[C@H](CC(C)C)NC(=O)[C@H](CCN)NC(=O)[C@@H](C)NC(=O)[C@H](CCN)NC(=O)[C@H](C(C)C)NC(=O)[C@H](Cc2ccc(-c3ccccc3)cc2)NC1=O [Compound 1105] ({CH2CO}-FYDWL[Bip]V[Dab][dA][Dab]LVTCA-NH2; thioether N-14)
6,103,CC(C)C[C@H]1NC(=O)[C@H](CCCN)NC(=O)[C@H](CN)NC(=O)[C@H](Cc2ccc(-c3ccccc3)cc2)NC(=O)[C@H](C(C)C)NC(=O)[C@H](Cc2c[nH]c3ccccc23)NC(=O)[C@H](CC(=O)O)NC(=O)[C@H](Cc2ccc(OCC(=O)O)cc2)NC(=O)[C@H](CC#N)NC(=O)CSC[C@@H](C(=O)N[C@@H](C)C(N)=O)NC(=O)[C@H](C(C)O)NC(=O)[C@H](C(C)C)NC(=O)[C@H](CC2CCCCC2)NC(=O)[C@H](CC(N)=O)NC1=O (stereo partly drawn) [Compound 2539]
7,25,Cc1cccc(C[C@@H]2NC(=O)[C@H](CC(=O)O)NC(=O)[C@H](Cc3ccc(C(=O)O)cc3)NC(=O)[C@H](Cc3ccsc3)NC(=O)CSC[C@@H](C(=O)N[C@H](CC(N)=O)C(N)=O)NC(=O)[C@H](CO)NC(=O)[C@H](C(C)(C)O)NC(=O)[C@H](CC3CCCCC3)NC(=O)[C@H](CCN)NC(=O)[C@@H](CC(C)C)NC(=O)[C@H](CCCN)NC(=O)[C@H](Cc3ccc(C(=O)O)cc3)NC(=O)[C@H](Cc3ccc(-c4ccccc4)cc3)NC(=O)[C@H](Cc3ccc(OCC(=O)O)cc3)NC2=O)c1 [Compound 2656] ({CH2CO}-[3Thi][Phe(4-COOH)]D[Phe(3-Me)]Y(Carboxymethyl)[Bip][Phe(4-COOH)][Orn][dL][Dab][Cha][Val(3-OH)]SC[dN]-NH2; thioether N-14)
8,12.1,CC[C@H](C)[C@@H]1NC(=O)[C@H](Cc2ccc(-c3ccccc3)cc2)NC(=O)[C@H](C(C)C)NC(=O)[C@H](Cc2c[nH]c3ccccc23)NC(=O)[C@H](CC(=O)O)NC(=O)[C@H](Cc2ccc(O)cc2)NC(=O)[C@H](CC(N)=O)NC(=O)CSC[C@@H](C(=O)N[C@@H](C)C(N)=O)NC(=O)[C@H]([C@@H](C)O)NC(=O)[C@H](C(C)C)NC(=O)[C@H](CC(C)C)NC(=O)[C@H](CCN)NC(=O)[C@@H](CC(C)C)NC(=O)[C@H](CCCCN)NC1=O [Compound 1039] ({CH2CO}-NYDWV[Bip]IK[dL][Dab]LVTCA-NH2; thioether N-14)
9,15.8,CC[C@H](C)[C@@H]1NC(=O)[C@H](Cc2ccc(-c3ccccc3)cc2)NC(=O)[C@H](C(C)C)NC(=O)[C@H](Cc2c[nH]c3ccccc23)NC(=O)[C@H](CC(=O)O)NC(=O)[C@H](Cc2ccc(O)cc2)NC(=O)[C@H](CC(N)=O)NC(=O)CSC[C@@H](C(=O)N[C@@H](C)C(N)=O)NC(=O)[C@H]([C@@H](C)O)NC(=O)[C@H](C(C)C)NC(=O)[C@H](CC(C)C)NC(=O)[C@H](CCCNC(=N)N)NC(=O)[C@@H](CC(C)C)NC(=O)[C@H](CCCN)NC1=O [Compound 1143] ({CH2CO}-NYDWV[Bip]I[Orn][dL]RLVTCA-NH2; thioether N-14)
10,16.8,Cc1cccc(C[C@@H]2NC(=O)[C@H](CC(=O)O)NC(=O)[C@H](Cc3ccc(OCC(=O)O)cc3)NC(=O)[C@H](CN)NC(=O)CSC[C@@H](C(=O)NC3(C(N)=O)CC3)NC(=O)[C@H](CCCN)NC(=O)[C@H](C(C)C)NC(=O)[C@H](CC3CCCCC3)NC(=O)[C@H](CCN)NC(=O)[C@@H](CC(C)C)NC(=O)[C@H](CCCN)NC(=O)[C@H](Cc3ccc(O)cc3)NC(=O)[C@H](Cc3ccc(-c4ccccc4)cc3)NC(=O)[C@H](Cc3ccc(O)cc3)NC2=O)c1 [Compound 2043] ({CH2CO}-[Dap]Y(Carboxymethyl)D[Phe(3-Me)]Y[Bip]Y[Orn][dL][Dab][Cha]V[Orn]C[Ac3c]-NH2; thioether N-14)
11,18.6,CC(C)C[C@H]1NC(=O)[C@H](CCCN)NC(=O)[C@H](CCCNC(N)=O)NC(=O)[C@H](Cc2ccc(-c3ccccc3)cc2)NC(=O)[C@H]([C@@H](C)O)NC(=O)[C@H](Cc2c[nH]c3ccccc23)NC(=O)[C@H](CC(=O)O)NC(=O)[C@H](Cc2ccc(OCC(=O)O)cc2)NC(=O)[C@H](CN)NC(=O)CSC[C@@H](C(=O)N[C@@H](C)C(N)=O)NC(=O)[C@H]([C@@H](C)O)NC(=O)[C@H](C(C)C)NC(=O)[C@H](CC2CCCCC2)NC(=O)[C@H](CCN)NC1=O [Compound 1315] ({CH2CO}-[Dap]Y(Carboxymethyl)DWT[Bip][Cit][Orn][dL][Dab][Cha]VTCA-NH2; thioether N-14)
12,8.8,Cc1cccc(C[C@@H]2NC(=O)[C@H](CC(=O)O)NC(=O)[C@H](Cc3ccc(OCC(=O)O)cc3)NC(=O)[C@H](C(C)O)NC(=O)CSC[C@@H](C(=O)N[C@@H](CCN)C(N)=O)NC(=O)[C@H](C(C)O)NC(=O)[C@H](C(C)(C)O)NC(=O)[C@H](CC3CCCCC3)NC(=O)[C@H](CCN)NC(=O)[C@@H](CC(C)C)NC(=O)[C@H](CCCN)NC(=O)[C@H](CCCNC(N)=O)NC(=O)[C@H](Cc3ccc(-c4ccccc4)cc3)NC(=O)[C@H](C(C)C)NC2=O)c1 (stereo partly drawn) [Compound 2632] ({CH2CO}-[Thr(3ξ)]Y(Carboxymethyl)D[Phe(3-Me)]V[Bip][Cit][Orn][dL][Dab][Cha][Val(3-OH)][Thr(3ξ)]C[Dab]-NH2; thioether N-14)
13,19.6,CC(C)C[C@H]1NC(=O)[C@H](CCCN)NC(=O)[C@H](CCC(=O)O)NC(=O)[C@H](Cc2ccc(-c3ccccc3)cc2)NC(=O)[C@H](C(C)C)NC(=O)[C@H](Cc2c[nH]c3ccccc23)NC(=O)[C@H](CC(=O)O)NC(=O)[C@H](Cc2ccc(-c3ccc(C(=O)O)cc3)cc2)NC(=O)[C@H](Cc2ccc(OCC(=O)O)cc2)NC(=O)CSC[C@@H](C(=O)N[C@@H](C)C(N)=O)NC(=O)[C@H]([C@@H](C)O)NC(=O)[C@H](C(C)C)NC(=O)[C@H](CC2CCCCC2)NC(=O)[C@H](CCN)NC1=O [Compound 2168]
14,13.1,Cc1cccc(C[C@@H]2NC(=O)[C@H](CC(=O)O)NC(=O)[C@H](Cc3ccc(OCC(=O)O)cc3)NC(=O)[C@H](CCCCNC(=N)N)NC(=O)CSC[C@@H](C(=O)N[C@@H](CCCCN)C(=O)N[C@@H](CO)C(N)=O)NC(=O)[C@H](CO)NC(=O)[C@H](C(C)C)NC(=O)[C@H](CC3CCCCC3)NC(=O)[C@H](CCN)NC(=O)[C@@H](CC(C)C)NC(=O)[C@H](CCCN)NC(=O)[C@H](CCCNC(N)=O)NC(=O)[C@H](Cc3ccc(-c4ccccc4)cc3)NC(=O)[C@H](C(C)C)NC2=O)c1 [Compound 2594] ({CH2CO}-[hArg]Y(Carboxymethyl)D[Phe(3-Me)]V[Bip][Cit][Orn][dL][Dab][Cha]VSCKS-NH2; thioether N-14)

# Reference: US20250163104A1, “MACROCYCLIC IMMUNOMODULATORS” (priority 2021, published 2025)
